US20240173440A1, “HIGH PURITY COPPER RADIOPHARMACEUTICAL COMPOSITIONS AND DIAGNOSTIC AND THERAPEUTIC USES THEREOF” (Nuclidium AG, priority 2022, published 2024)

Columns and labels:
LNCaP xenografts [1] = experiment: PET/CT imaging in LNCaP xenografted mice; format: in vivo; conditions: LNCaP-xenografted nude mice
Description: Tumor xenografted mice were injected intravenously into the tail vein with the tested radiotracer. […] Mice were anesthetized with 1.5% isoflurane and dynamic PET scans were acquired during 1 hour upon injection of the radiotracer. The mice were euthanized by CO2 at 4 hours p.i., the bladder was mechanically emptied, and static PET scans were acquired for 30 min. PET images were acquired using the R-CUBE PET scanner system (MOLECUBES, Gent, Belgium) and they were decay corrected and reconstructed with the VivoQuant software version 4.0. The CT was imaged supine, headfirst, using the NanoSPECT/CT™ scanner (Bioscan Inc.). Topograms and helical CT scans of the whole mouse were first acquired using the following parameters: X-ray tube current: 177 μA, X-ray tube voltage 45 kVp, 90 seconds and 180 frames per rotation, pitch 1. CT images were reconstructed using CTReco (version r1.146), with a standard filtered back projection algorithm (exact cone beam) and post-filtered (RamLak, 100% frequency cut-off), resulting in a pixel size of 0.2 mm. Co-registered PET/CT images were visualized using maximum intensity projection (MIP) with InVivoScope (version 1.43, Bioscan Inc.). The results are presented in the Examples that follow.

LNCaP xenografts [2] = experiment: Quantitative biodistribution in LNCaP xenografted mice; format: in vivo; conditions: for kidney uptake: 1h p.i.
Description: The mice were randomly distributed in groups and euthanized at 1 and at 4 hours post-injection. The organs of interest were collected, rinsed, blotted, weighed and counted in a gamma counter. The results are expressed as percentage of injected activity per gram (% IA/g), representing the mean±standard deviation of n=4-8 mice per group and they were obtained by extrapolation from counts of an aliquot taken from the injected solution as standard.
The biodistribution of the [^61Cu]Cu-NODAGA radiotracers was compared with the reference compounds used in patients under identical experimental conditions. The mice were randomly distributed in groups, injected with the radiotracer under investigation and euthanized at 1 and at 4 hours post-injection of the radiotracers under investigation. The organs of interest were collected, rinsed, blotted, weighed and counted in a gamma counter. The results are expressed as percentage of injected activity per gram (% IA/g), representing the mean±standard deviation of all mice per group and they were obtained by extrapolation from counts of an aliquot taken from the injected solution as standard.

PSMA [3] = biological target: T1, PSMA (Homo sapiens (Human), UniProt Q04609); experiment: Specificity study: PET/CT in LNCaP xenografts after blocking with 2-PMPA, and free [61Cu]CuCl2; format: in vivo, mice; conditions: PET/CT 1 hour p.i.
T1 sequence (Q04609 whole entry): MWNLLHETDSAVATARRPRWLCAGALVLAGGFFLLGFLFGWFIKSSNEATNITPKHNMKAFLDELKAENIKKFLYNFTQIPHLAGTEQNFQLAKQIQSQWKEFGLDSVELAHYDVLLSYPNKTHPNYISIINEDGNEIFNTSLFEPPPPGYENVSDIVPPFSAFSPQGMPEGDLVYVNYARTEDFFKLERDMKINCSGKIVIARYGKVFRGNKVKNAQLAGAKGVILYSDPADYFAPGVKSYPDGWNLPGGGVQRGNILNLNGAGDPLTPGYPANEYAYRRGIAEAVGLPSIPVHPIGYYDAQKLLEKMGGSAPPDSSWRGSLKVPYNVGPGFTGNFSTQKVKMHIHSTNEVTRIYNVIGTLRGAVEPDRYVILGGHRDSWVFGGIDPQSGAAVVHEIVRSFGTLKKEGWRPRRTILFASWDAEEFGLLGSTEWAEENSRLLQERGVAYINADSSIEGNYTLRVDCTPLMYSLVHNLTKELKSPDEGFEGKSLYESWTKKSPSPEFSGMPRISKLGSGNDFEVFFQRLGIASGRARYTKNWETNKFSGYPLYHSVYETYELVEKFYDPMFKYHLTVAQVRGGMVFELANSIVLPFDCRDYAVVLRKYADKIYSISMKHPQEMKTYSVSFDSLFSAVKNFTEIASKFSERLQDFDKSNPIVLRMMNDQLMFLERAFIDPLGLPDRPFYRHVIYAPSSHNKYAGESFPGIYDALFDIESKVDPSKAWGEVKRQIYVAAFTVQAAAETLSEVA
Description: The specificity of [^61Cu]Cu-NODAGA-PSMA-I&T and [^61Cu]Cu-DOTAGA-PSMA-I&T was assessed in LNCaP xenografted mice, firstly injected with 1.3 μmol (300 μg) of 2-Phosphonomethyl pentanedioic acid (2-PMPA) as the blocking agent, followed by the injection of the radiotracer e.g. [^61Cu]Cu-DOTAGA-PSMA-I&T (100 μL/[…]/4-8 MBq) or [^61Cu]Cu-NODAGA-PSMA-I&T (100 μL/[…]/4-8 MBq). One-hour post injection PET/CT images were acquired as described in Example 8. In addition, PET/CT image of xenografts after injection of [^61Cu]CuCl2 (100 μL/7 MBq) was acquired in order to assess the total body distribution of free (uncomplexed)^61Cu. The results are shown in FIG. 10, panels A and B. L=liver; K=kidneys; T=tumor; Bl=bladder; I=intestine.

PSMA [4] = biological target: T1, PSMA; experiment: PET/CT imaging in a patient with metastatic prostate cancer; format: in vivo; conditions: metastatic castration resistant prostate cancer, imaging 3 hours after administration
Description: Radiopharmaceutical preparation: The reaction is carried out in a GE Healthcare FASTlab 2 module. A 40 μg (28 nmol) aliquot of lyophilized NODAGA-PSMA-I&T (piCHEM, Austria) was dissolved in up to 6 mL 0.5 M sodium acetate (pH 8) and ascorbic acid (20 μg/mL), and transferred to a reaction vial. Then [^61Cu]CuCl2 in 0.05 M hydrochloric acid (0.3-1.0 GBq/mL) (3 mL) was added to the NODAGA-PSMA-I&T solution, reaching a pH between 4.5 and 6.5. The obtained reaction solution was incubated for 10 min at room temperature (approx. 20-25° C.) and dispensed to the product vial (20 mL sterile evacuated vial) over a sterile Cathivex-GV 25 mm PVDF 0.22 μm filter. The product was finally diluted with 0.9% sodium chloride for injection (B. Braun, Germany) up to 12 mL. [^61Cu]Cu-NODAGA-PSMA-I&T is produced with high radiochemical purity (≥95%). Therefore, no further purification step is necessary. All the chemicals used are trace metal grade.
The patient was co-administered […] furosemide (Lasix®, Sanofi-Aventis, Frankfurt, Germany). The imaging was performed at 3 hours following radiotracer administration on a Biograph Vision 600 (Siemens, Germany) PET/CT scanner. These images, shown in FIG. 35, were obtained from the skull to mid-thigh and reconstructed into multiplanar PT, CT, and fused PET/CT images. CT was used for attenuation correction.

[5] = LNCap xenograft mice, 1 h after injection
[6] = LNCap xenograft mice, 4 h after injection

O=C(O)CC[C@H](NC(=O)N[C@@H](CCCCNC(=O)CCCCCCC(=O)NCCCC[C@@H](NC(=O)[C@@H](Cc1ccccc1)NC(=O)[C@@H](Cc1ccc(O)c(I)c1)NC(=O)CC[C@H](C(=O)O)N1CCN2CCN(CC1)CC(=O)[O][61Cu][O]C(=O)C2)C(=O)O)C(=O)O)C(=O)O [[^61Cu]Cu-NODAGA-PSMA-I&T]
distribution on PET/CT images (LNCaP xenografts [1]): accumulated in the tumor, increasing from 15 up to 60 min p.i., and in the kidneys | Biodistribution Adrenal (LNCaP xenografts [2]; 1 hour p.i., LNCaP xenografts): 17.3 ± 3.26 % IA/g | Biodistribution Blood (LNCaP xenografts [2]; 1 hour p.i., LNCaP xenografts): 0.28 ± 0.06 % IA/g | Biodistribution Bone (LNCaP xenografts [2]; 1 hour p.i., LNCaP xenografts): 2.73 ± 0.91 % IA/g | Biodistribution Heart (LNCaP xenografts [2]; 1 hour p.i., LNCaP xenografts): 0.45 ± 0.15 % IA/g | Biodistribution Intestine (LNCaP xenografts [2]; 1 hour p.i., LNCaP xenografts): 2.11 ± 0.78 % IA/g | Biodistribution Kidneys (LNCaP xenografts [2]; 1 hour p.i., LNCaP xenografts): 118 ± 13 % IA/g | Biodistribution LNCaP-tumor (LNCaP xenografts [2]; 1 hour p.i., LNCaP xenografts): 14.0 ± 5.0 % IA/g | Biodistribution Liver (LNCaP xenografts [2]; 1 hour p.i., LNCaP xenografts): 1.02 ± 0.28 % IA/g | Biodistribution Lung (LNCaP xenografts [2]; 1 hour p.i., LNCaP xenografts): 1.69 ± 0.45 % IA/g | Biodistribution Muscle (LNCaP xenografts [2]; 1 hour p.i., LNCaP xenografts): 1.12 ± 0.32 % IA/g | Biodistribution Pancreas (LNCaP xenografts [2]; 1 hour p.i., LNCaP xenografts): 0.97 ± 0.36 % IA/g | Biodistribution Salivary glands (LNCaP xenografts [2]; 1 hour p.i., LNCaP xenografts): 2.01 ± 0.33 % IA/g | Biodistribution Spleen (LNCaP xenografts [2]; 1 hour p.i., LNCaP xenografts): 6.04 ± 1.87 % IA/g | Biodistribution Stomach (LNCaP xenografts [2]; 1 hour p.i., LNCaP xenografts): 1.13 ± 0.20 % IA/g | Ratio Tumor/Blood (LNCaP xenografts [2]; 1 hour p.i., LNCaP xenografts): 55.8 ± 20.0 | Ratio Tumor/Kidney (LNCaP xenografts [2]; 1 hour p.i., LNCaP xenografts): 0.13 ± 0.03 | Ratio Tumor/Liver (LNCaP xenografts [2]; 1 hour p.i., LNCaP xenografts): 14.9 ± 4.9 | Ratio Tumor/Muscles (LNCaP xenografts [2]; 1 hour p.i., LNCaP xenografts): 13.6 ± 3.75 | kidney uptake (LNCaP xenografts [2]; injected amount 200 μmol (so in the source)): 96 % IA/g | kidney uptake (LNCaP xenografts [2]; injected amount 400 μmol (so in the source)): 72 % IA/g | kidney uptake (LNCaP xenografts [2]; injected amount 1000 μmol (so in the source)): 34 % IA/g | Biodistribution Adrenal (LNCaP xenografts [2]; 4 hours p.i., LNCaP xenografts): 8.32 ± 2.87 % IA/g | Biodistribution Blood (LNCaP xenografts [2]; 4 hours p.i., LNCaP xenografts): 0.10 ± 0.03 % IA/g | Biodistribution Bone (LNCaP xenografts [2]; 4 hours p.i., LNCaP xenografts): 1.34 ± 0.48 % IA/g | Biodistribution Heart (LNCaP xenografts [2]; 4 hours p.i., LNCaP xenografts): 0.22 ± 0.05 % IA/g | Biodistribution Intestine (LNCaP xenografts [2]; 4 hours p.i., LNCaP xenografts): 1.06 ± 0.50 % IA/g | Biodistribution Kidneys (LNCaP xenografts [2]; 4 hours p.i., LNCaP xenografts): 91 ± 10 % IA/g | Biodistribution LNCaP-tumor (LNCaP xenografts [2]; 4 hours p.i., LNCaP xenografts): 10.7 ± 3.3 % IA/g | Biodistribution Liver (LNCaP xenografts [2]; 4 hours p.i., LNCaP xenografts): 0.72 ± 0.11 % IA/g | Biodistribution Lung (LNCaP xenografts [2]; 4 hours p.i., LNCaP xenografts): 0.74 ± 0.19 % IA/g | Biodistribution Muscle (LNCaP xenografts [2]; 4 hours p.i., LNCaP xenografts): 0.50 ± 0.22 % IA/g | Biodistribution Pancreas (LNCaP xenografts [2]; 4 hours p.i., LNCaP xenografts): 0.45 ± 0.09 % IA/g | Biodistribution Salivary glands (LNCaP xenografts [2]; 4 hours p.i., LNCaP xenografts): 0.52 ± 0.06 % IA/g | Biodistribution Spleen (LNCaP xenografts [2]; 4 hours p.i., LNCaP xenografts): 1.28 ± 0.39 % IA/g | Biodistribution Stomach (LNCaP xenografts [2]; 4 hours p.i., LNCaP xenografts): 0.66 ± 0.15 % IA/g | Ratio Tumor/Blood (LNCaP xenografts [2]; 4 hours p.i., LNCaP xenografts): 109 ± 43 | Ratio Tumor/Kidney (LNCaP xenografts [2]; 4 hours p.i., LNCaP xenografts): 0.12 ± 0.03 | Ratio Tumor/Liver (LNCaP xenografts [2]; 4 hours p.i., LNCaP xenografts): 15.4 ± 5.7 | Ratio Tumor/Muscles (LNCaP xenografts [2]; 4 hours p.i., LNCaP xenografts): 25.4 ± 12.0 | tumor uptake (LNCaP xenografts [2]; 4h p.i., LNCaP xenograft mice, comparison with reference radiotracer, p=0.0145): 10.7±3.3 % IA/g | accumulation in tumor and target-positive tissues (LNCaP xenografts [2]; LNCaP xenografts): high accumulation in PSMA-positive (LNCaP) tumor and PSMA-positive tissues | Biodistribution Adrenal (LNCaP xenografts [2]; [5]): 17.3 ± 3.26 % IA/g | Biodistribution Blood (LNCaP xenografts [2]; [5]): 0.28 ± 0.06 % IA/g | Biodistribution Bone (LNCaP xenografts [2]; [5]): 2.73 ± 0.91 % IA/g | Biodistribution Heart (LNCaP xenografts [2]; [5]): 0.45 ± 0.15 % IA/g | Biodistribution Intestine (LNCaP xenografts [2]; [5]): 2.11 ± 0.78 % IA/g | Biodistribution Kidney (LNCaP xenografts [2]; [5]): 118 ± 13 % IA/g | Biodistribution LNCaP-tumor (LNCaP xenografts [2]; [5]): 14.0 ± 5.0 % IA/g | Biodistribution Liver (LNCaP xenografts [2]; [5]): 1.02 ± 0.28 % IA/g | Biodistribution Lung (LNCaP xenografts [2]; [5]): 1.69 ± 0.45 % IA/g | Biodistribution Muscle (LNCaP xenografts [2]; [5]): 1.12 ± 0.32 % IA/g | Biodistribution Pancreas (LNCaP xenografts [2]; [5]): 0.97 ± 0.36 % IA/g | Biodistribution Salivary gland (LNCaP xenografts [2]; [5]): 2.01 ± 0.33 % IA/g | Biodistribution Spleen (LNCaP xenografts [2]; [5]): 6.04 ± 1.87 % IA/g | Biodistribution Stomach (LNCaP xenografts [2]; [5]): 1.13 ± 0.20 % IA/g | Ratio Tumor/Blood (LNCaP xenografts [2]; [5]): 55.8 ± 20.0 | Ratio Tumor/Kidney (LNCaP xenografts [2]; [5]): 0.13 ± 0.03 | Ratio Tumor/Liver (LNCaP xenografts [2]; [5]): 14.9 ± 4.9 | Ratio Tumor/Muscles (LNCaP xenografts [2]; [5]): 13.6 ± 3.75 | Biodistribution Adrenal (LNCaP xenografts [2]; [6]): 8.32 ± 2.87 % IA/g | Biodistribution Blood (LNCaP xenografts [2]; [6]): 0.10 ± 0.03 % IA/g | Biodistribution Bone (LNCaP xenografts [2]; [6]): 1.34 ± 0.48 % IA/g | Biodistribution Heart (LNCaP xenografts [2]; [6]): 0.22 ± 0.05 % IA/g | Biodistribution Intestine (LNCaP xenografts [2]; [6]): 1.06 ± 0.50 % IA/g | Biodistribution Kidney (LNCaP xenografts [2]; [6]): 90.9 ± 10.1 % IA/g | Biodistribution LNCaP-tumor (LNCaP xenografts [2]; [6]): 10.7 ± 3.3 % IA/g | Biodistribution Liver (LNCaP xenografts [2]; [6]): 0.72 ± 0.11 % IA/g | Biodistribution Lung (LNCaP xenografts [2]; [6]): 0.74 ± 0.19 % IA/g | Biodistribution Muscle (LNCaP xenografts [2]; [6]): 0.50 ± 0.22 % IA/g | Biodistribution Pancreas (LNCaP xenografts [2]; [6]): 0.45 ± 0.09 % IA/g | Biodistribution Salivary gland (LNCaP xenografts [2]; [6]): 0.52 ± 0.06 % IA/g | Biodistribution Spleen (LNCaP xenografts [2]; [6]): 1.28 ± 0.39 % IA/g | Biodistribution Stomach (LNCaP xenografts [2]; [6]): 0.66 ± 0.15 % IA/g | Ratio Tumor/Blood (LNCaP xenografts [2]; [6]): 109 ± 43 | Ratio Tumor/Kidney (LNCaP xenografts [2]; [6]): 0.12 ± 0.03 | Ratio Tumor/Liver (LNCaP xenografts [2]; [6]): 15.4 ± 5.7 | Ratio Tumor/Muscles (LNCaP xenografts [2]; [6]): 25.4 ± 12.0 | uptake in PSMA-positive tumors and kidneys in xenografts pre-injected with 2-PMPA (PSMA [3]): significantly lower uptake | tracer uptake on PET/CT in patient (PSMA [4]): intense tracer uptake by multiple osseous, pelvic lymph node, and liver metastases
